Target: human GLP-1 receptor (Homo sapiens (Human), UniProt P43220)
Conditions: read-out: Mean EC50; cAMP, HTRF detection, 30 min at 37° C., HEK-293 cells expressing cloned human GLP-1 receptor

Chain of human GLP-1 receptor (P43220 24-463): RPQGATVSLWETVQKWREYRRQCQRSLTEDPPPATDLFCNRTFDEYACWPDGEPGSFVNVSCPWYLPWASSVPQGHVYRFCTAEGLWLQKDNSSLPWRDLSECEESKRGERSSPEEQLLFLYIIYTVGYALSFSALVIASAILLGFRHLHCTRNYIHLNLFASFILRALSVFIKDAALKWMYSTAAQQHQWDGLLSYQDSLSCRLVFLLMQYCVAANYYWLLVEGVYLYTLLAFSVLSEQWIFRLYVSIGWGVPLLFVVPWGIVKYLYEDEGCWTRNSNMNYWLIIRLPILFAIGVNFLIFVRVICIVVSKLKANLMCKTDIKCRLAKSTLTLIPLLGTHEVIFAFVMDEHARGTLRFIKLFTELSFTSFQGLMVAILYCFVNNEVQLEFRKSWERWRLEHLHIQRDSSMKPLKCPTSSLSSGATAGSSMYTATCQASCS

Row | EC50 | SMILES
1 | 200 nM | Cc1nccc(-c2ccc(C[C@H](NC(=O)[C@@H]3Cc4cc5c(cc4CN3C(=O)c3ccccc3)O[C@@H](c3ccc(OCC4CCCC4)cc3)CO5)C(=O)O)cc2)c1C [Example 305, (S)-2-{[(3S,8S)-7-Benzoyl-3-(4-cyclopentylmethoxy-phenyl)-2,3,6,7,8,9-hexahydro-[1,4]dioxino[2,3-g]isoquinoline-8-carbonyl]-amino}-3-[4-(2,3-dimethyl-pyridin-4-yl)-phenyl]-propionic acid]
2 | 103 nM | Cc1nccc(-c2ccc(C[C@H](NC(=O)[C@@H]3Cc4cc5c(cc4CN3C(=O)c3ccccc3)O[C@@H](c3ccc(O[C@H]4CC[C@H](C)CC4)cc3)CO5)C(=O)O)cc2)c1C [Example 306, (S)-2-({(3S,8S)-7-Benzoyl-3-[4-(trans-4-methyl-cyclohexyloxy)-phenyl]-2,3,6,7,8,9-hexahydro-[1,4]dioxino[2,3-g]isoquinoline-8-carbonyl}-amino)-3-[4-(2,3-dimethyl-pyridin-4-yl)-phenyl]-propionic acid]
3 | 74 nM | Cc1nccc(-c2ccc(C[C@H](NC(=O)[C@@H]3Cc4cc5c(cc4CN3C(=O)N3CCOCC3)O[C@@H](c3ccc(OCc4ccc(Cl)c(Cl)c4)cc3)CO5)C(=O)O)cc2)c1C [Example 311, (S)-2-{[(3S,8S)-3-[4-(3,4-Dichloro-benzyloxy)-phenyl]-7-(morpholine-4-carbonyl)-2,3,6,7,8,9-hexahydro-[1,4]dioxino[2,3-g]isoquinoline-8-carbonyl]-amino}-3-[4-(2,3-dimethyl-pyridin-4-yl)-phenyl]-propionic acid]
4 | 32 nM | Cc1nccc(-c2ccc(C[C@H](NC(=O)[C@@H]3Cc4cc5c(cc4CN3C(=O)N3CCCCC3)O[C@@H](c3ccc(OCc4ccc(Cl)c(Cl)c4)cc3)CO5)C(=O)O)cc2)c1C [Example 312, (S)-2-{[(3S,8S)-3-[4-(3,4-Dichloro-benzyloxy)-phenyl]-7-(piperidine-1-carbonyl)-2,3,6,7,8,9-hexahydro-[1,4]dioxino[2,3-g]isoquinoline-8-carbonyl]-amino}-3-[4-(2,3-dimethyl-pyridin-4-yl)-phenyl]-propionic acid]
5 | 73 nM | Cc1nccc(-c2ccc(C[C@H](NC(=O)[C@@H]3Cc4cc5c(cc4CN3C(=O)N3CCCC3)O[C@@H](c3ccc(OCc4ccc(Cl)c(Cl)c4)cc3)CO5)C(=O)O)cc2)c1C [Example 313, (S)-2-{[(3S,8S)-3-[4-(3,4-Dichloro-benzyloxy)-phenyl]-7-(pyrrolidine-1-carbonyl)-2,3,6,7,8,9-hexahydro-[1,4]dioxino[2,3-g]isoquinoline-8-carbonyl]-amino}-3-[4-(2,3-dimethyl-pyridin-4-yl)-phenyl]-propionic acid]
6 | 183 nM | CCC(C)(C)NC(=O)N1Cc2cc3c(cc2C[C@H]1C(=O)N[C@@H](Cc1ccc(-c2ccnc(C)c2C)cc1)C(=O)O)OC[C@H](c1ccc(OCc2ccc(Cl)c(Cl)c2)cc1)O3 [Example 319, (S)-2-{[(3S,8S)-3-[4-(3,4-Dichloro-benzyloxy)-phenyl]-7-(1,1-dimethyl-propylcarbamoyl)-2,3,6,7,8,9-hexahydro-[1,4]dioxino[2,3-g]isoquinoline-8-carbonyl]-amino}-3-[4-(2,3-dimethyl-pyridin-4-yl)-phenyl]-propionic acid]
7 | 45 nM | Cc1nccc(-c2ccc(C[C@H](NC(=O)[C@@H]3Cc4cc5c(cc4CN3C(=O)NC3(C)CCC3)O[C@@H](c3ccc(OCc4ccc(Cl)c(Cl)c4)cc3)CO5)C(=O)O)cc2)c1C [Example 320, (S)-2-{[(3S,8S)-3-[4-(3,4-Dichloro-benzyloxy)-phenyl]-7-(1-methyl-cyclobutylcarbamoyl)-2,3,6,7,8,9-hexahydro-[1,4]dioxino[2,3-g]isoquinoline-8-carbonyl]-amino}-3-[4-(2,3-dimethyl-pyridin-4-yl)-phenyl]-propionic acid]
8 | 178 nM | Cc1nccc(-c2ccc(C[C@H](NC(=O)[C@@H]3Cc4cc5c(cc4CN3C(=O)NC(C)(C)c3ccccc3)O[C@@H](c3ccc(OCc4ccc(Cl)c(Cl)c4)cc3)CO5)C(=O)O)cc2)c1C [Example 323, (S)-2-{[(3S,8S)-3-[4-(3,4-Dichloro-benzyloxy)-phenyl]-7-(1-methyl-1-phenyl-ethylcarbamoyl)-2,3,6,7,8,9-hexahydro-[1,4]dioxino[2,3-g]isoquinoline-8-carbonyl]-amino}-3-[4-(2,3-dimethyl-pyridin-4-yl)-phenyl]-propionic acid]
9 | 126 nM | Cc1nccc(-c2ccc(C[C@H](NC(=O)[C@@H]3Cc4cc5c(cc4CN3C(=O)c3ccn(C)n3)O[C@@H](c3ccc(OCc4ccc(Cl)c(Cl)c4)cc3)CO5)C(=O)O)cc2)c1C [Example 324, (S)-2-{[(3S,8S)-3-[4-(3,4-Dichloro-benzyloxy)-phenyl]-7-(1-methyl-1H-pyrazole-3-carbonyl)-2,3,6,7,8,9-hexahydro-[1,4]dioxino[2,3-g]isoquinoline-8-carbonyl]-amino}-3-[4-(2,3-dimethyl-pyridin-4-yl)-phenyl]-propionic acid]
10 | 81 nM | Cc1ccc(C(=O)N2Cc3cc4c(cc3C[C@H]2C(=O)N[C@@H](Cc2ccc(-c3ccnc(C)c3C)cc2)C(=O)O)OC[C@H](c2ccc(OCc3ccc(Cl)c(Cl)c3)cc2)O4)s1 [Example 329, (S)-2-{[(3S,8S)-3-[4-(3,4-dichloro-benzyloxy)-phenyl]-7-(5-methyl-thiophene-2-carbonyl)-2,3,6,7,8,9-hexahydro-[1,4]dioxino[2,3-g]isoquinoline-8-carbonyl]-amino}-3-[4-(2,3-dimethyl-pyridin-4-yl)-phenyl]-propionic acid]
11 | 66 nM | Cc1nccc(-c2ccc(C[C@H](NC(=O)[C@@H]3Cc4cc5c(cc4CN3C(=O)c3nc[nH]n3)O[C@@H](c3ccc(OCc4ccc(Cl)c(Cl)c4)cc3)CO5)C(=O)O)cc2)c1C [Example 332, (S)-2-{[(3S,8S)-3-[4-(3,4-Dichloro-benzyloxy)-phenyl]-7-(1H-[1,2,4]triazole-3-carbonyl)-2,3,6,7,8,9-hexahydro-[1,4]dioxino[2,3-g]isoquinoline-8-carbonyl]-amino}-3-[4-(2,3-dimethyl-pyridin-4-yl)-phenyl]-propionic acid]
12 | 195 nM | Cc1nccc(-c2ccc(C[C@H](NC(=O)[C@@H]3Cc4cc5c(cc4CN3C(=O)C3CNC(=O)N3)O[C@@H](c3ccc(OCc4ccc(Cl)c(Cl)c4)cc3)CO5)C(=O)O)cc2)c1C (stereo partly drawn) [Example 333, (S)-2-{[(3S,8S)-3-[4-(3,4-Dichloro-benzyloxy)-phenyl]-7-(2-oxo-imidazolidine-4-carbonyl)-2,3,6,7,8,9-hexahydro-[1,4]dioxino[2,3-g]isoquinoline-8-carbonyl]-amino}-3-[4-(2,3-dimethyl-pyridin-4-yl)-phenyl]-propionic acid]
13 | 115 nM | Cc1nccc(Oc2ccc(C[C@H](NC(=O)[C@@H]3Cc4cc5c(cc4CN3C(=O)N[C@@H](C)c3ccccc3)O[C@@H](c3ccc(OCc4ccc(Cl)c(Cl)c4)cc3)CO5)C(=O)O)cc2)c1C [Example 335, (S)-2-{[(3S,8S)-3-[4-(3,4-Dichloro-benzyloxy)-phenyl]-7-((S)-1-phenyl-ethylcarbamoyl)-2,3,6,7,8,9-hexahydro-[1,4]dioxino[2,3-g]isoquinoline-8-carbonyl]-amino}-3-[4-(2,3-dimethyl-pyridin-4-yloxy)-phenyl]-propionic acid]
14 | 145 nM | Cc1nccc(Oc2ccc(C[C@H](NC(=O)[C@@H]3Cc4cc5c(cc4CN3C(=O)N[C@H](C)c3ccc(F)cc3)O[C@@H](c3ccc(OCc4ccc(Cl)c(Cl)c4)cc3)CO5)C(=O)O)cc2)c1C [Example 337, (S)-2-({(3S,8S)-3-[4-(3,4-Dichloro-benzyloxy)-phenyl]-7-[(R)-1-(4-fluoro-phenyl)-ethylcarbamoyl]-2,3,6,7,8,9-hexahydro-[1,4]dioxino[2,3-g]isoquinoline-8-carbonyl}-amino)-3-[4-(2,3-dimethyl-pyridin-4-yloxy)-phenyl]-propionic acid]
15 | 377 nM | Cc1ccccc1NC(=O)N1Cc2cc3c(cc2C[C@H]1C(=O)N[C@@H](Cc1ccc(Oc2ccnc(C)c2C)cc1)C(=O)O)OC[C@H](c1ccc(OCc2ccc(Cl)c(Cl)c2)cc1)O3 [Example 338, (S)-2-({(3S,8S)-3-[4-(3,4-Dichloro-benzyloxy)-phenyl]-7-o-tolylcarbamoyl-2,3,6,7,8,9-hexahydro-[1,4]dioxino[2,3-g]isoquinoline-8-carbonyl}-amino)-3-[4-(2,3-dimethyl-pyridin-4-yloxy)-phenyl]-propionic acid]
16 | 204 nM | Cc1nccc(Oc2ccc(C[C@H](NC(=O)[C@@H]3Cc4cc5c(cc4CN3C(=O)NC(C)C)O[C@@H](c3ccc(OCc4ccc(Cl)c(Cl)c4)cc3)CO5)C(=O)O)cc2)c1C [Example 342, (S)-2-({(3S,8S)-3-[4-(3,4-Dichloro-benzyloxy)-phenyl]-7-isopropylcarbamoyl-2,3,6,7,8,9-hexahydro-[1,4]dioxino[2,3-g]isoquinoline-8-carbonyl}-amino)-3-[4-(2,3-dimethyl-pyridin-4-yloxy)-phenyl]-propionic acid]
17 | 124 nM | Cc1nccc(Oc2ccc(C[C@H](NC(=O)[C@@H]3Cc4cc5c(cc4CN3C(=O)NC(C)(C)C)O[C@@H](c3ccc(OCc4ccc(Cl)c(Cl)c4)cc3)CO5)C(=O)O)cc2)c1C [Example 343, (S)-2-({(3S,8S)-7-tert-Butylcarbamoyl-3-[4-(3,4-dichloro-benzyloxy)-phenyl]-2,3,6,7,8,9-hexahydro-[1,4]dioxino[2,3-g]isoquinoline-8-carbonyl}-amino)-3-[4-(2,3-dimethyl-pyridin-4-yloxy)-phenyl]-propionic acid]

Row | SMILES | EC50
18 | Cc1nccc(-c2ccc(C[C@H](NC(=O)[C@@H]3Cc4cc5c(cc4CN3C(=O)c3ccccc3)O[C@@H](c3ccc(OCCC(C)(C)C)cc3)CO5)C(=O)O)cc2)c1C [Example 303, (S)-2-({(3S,8S)-7-Benzoyl-3-[4-(3,3-dimethyl-butoxy)-phenyl]-2,3,6,7,8,9-hexahydro-[1,4]dioxino[2,3-g]isoquinoline-8-carbonyl}-amino)-3-[4-(2,3-dimethyl-pyridin-4-yl)-phenyl]-propionic acid] | 141 nM
